Each structure is given as a SMILES string. pIC50: −log10 of the molar value.

T1 sequence (F1MGM3 1-403): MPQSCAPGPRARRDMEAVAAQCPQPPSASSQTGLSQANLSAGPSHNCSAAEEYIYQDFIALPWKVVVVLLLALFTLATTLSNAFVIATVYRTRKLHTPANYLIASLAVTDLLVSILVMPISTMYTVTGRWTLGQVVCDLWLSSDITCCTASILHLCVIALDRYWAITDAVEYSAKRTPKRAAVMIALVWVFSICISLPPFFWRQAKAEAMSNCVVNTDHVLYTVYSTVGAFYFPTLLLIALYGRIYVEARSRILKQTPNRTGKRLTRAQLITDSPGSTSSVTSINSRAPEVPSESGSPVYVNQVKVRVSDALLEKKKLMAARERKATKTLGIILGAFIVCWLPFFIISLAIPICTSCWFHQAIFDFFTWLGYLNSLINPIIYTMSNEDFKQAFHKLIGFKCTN

One experiment has as its target T1, 5-HT1D (Bos taurus, UniProt F1MGM3).
T1 construct: from tissue
The experiment is described as follows: 5-HT1D activity, method of R. E. Heuring and S. J. Peroutka. It is filed as binding.
Settings: not given
The procedure:
The active compounds of the invention are evaluated as anti-migraine agents by testing the extent to which they mimic sumatriptan in contracting the dog isolated saphenous vein strip (P. P. A. Humphrey et al., Br. J. Pharmacol., 94, 1128 (1988)). This effect can be blocked by methiothepin, a known serotonin antagonist. Sumatriptan is known to be useful in the treatment of migraine and produces a selective increase in carotid vascular resistance in the anaesthetized dog. […] The active compounds are also evaluated using the method of R. E. Heuring and S. J. Peroutka (J. Neuroscience, 7, 894 (1987)).
`Cc1csc(Cc2ccc3[nH]cc(C4=CCNCC4)c3c2)n1` [Example 26, 2-[3-(1,2,5,6-Tetrahydropyrid-4-yl)indol-5-ylmethyl]-4-methylthiazole] had a pIC50 of no more than 6.00.

The molecule `Cc1nc(-c2ccc3[nH]cc(C4=CCNCC4)c3c2)cs1` [Example 20, 4-[3-(1,2,5,6-Tetrahydropyrid-4-yl)indol-5-yl]-2-methylthiazole] gave a negative-log IC50 (pIC50) of no more than 6.00.

Still in this experiment, the particulars now being: method of Heuring and Peroutka, J. Neuroscience, 7, 894 (1987); read-out: IC50 (5-HT1D activity).
As to `CN(C)CCc1c[nH]c2ccc(-c3nc(COc4ccccc4)cs3)cc12` [Example 15A, 2-[3-(N,N-Dimethylaminoethyl)indol-5-yl]-4-(phenoxymethyl)thiazole], the pIC50 was no more than 6.00.

For the molecule `CN(C)CCc1c[nH]c2ccc(-c3nc(CNc4ccccc4)cs3)cc12` [Example 13, 2-[3-(N,N-Dimethylaminoethyl)-indol-5-yl]-4-(phenylaminomethyl)thiazole], the pIC50 was no more than 6.00. The same measure, in the same setting: for `CN(C)CCc1c[nH]c2ccc(-c3nccs3)cc12` [Example 7, 2-[3-(N,N-Dimethylaminoethyl)indol-5-yl]thiazole] the value was no more than 6.00; for `CN(C)CCc1c[nH]c2ccc(-c3nc(CSc4ccccc4)cs3)cc12` [Example 15B, 2-[3-(N,N-Dimethylaminoethyl)indol-5-yl)-4-(thiophenoxymethyl)thiazole], no more than 6.00; for `CN1CCC(c2c[nH]c3ccc(-c4nc(CNc5ccccc5)cs4)cc23)CC1` [Example 28, 2-[3-(1-Methylpiperidin-4-yl)indol-5-yl]-4-(phenylaminomethyl)thiazole], no more than 6.00.
